Experimental findings from US20090176817A1, “Method of Treatment of Diarrhea-Predominant Irritable Bowel Syndrome in a Subject” (priority 2005, published 2009) are described below.

Like-named read-outs stand apart in the source and are kept apart here.

Data set [1] relates to non-constipated IBS subjects. In words: Study S241.2.113: Phase II dose-ranging efficacy. Format: in vivo, human. Here is the method: Study S241.2.113 was a Phase II, double-blind, placebo-controlled, randomized, multi-center, parallel-group, dose-ranging study to investigate the efficacy and safety of cilansetron in nonconstipated subjects with irritable bowel syndrome. The study was conducted in 55 study centers in Canada, France, Austria, Germany, United Kingdom, Italy, Belgium, and The Netherlands. A total of at least 88 subjects per treatment group evaluable for efficacy were planned, in total 440 to complete the study; 776 subjects were screened; 485 subjects were randomized (479 in the safety sample). Diagnosis and main criteria for inclusion were IBS subjects satisfying the Rome criteria (1992) and minimum abdominal pain/discomfort, stool frequency and consistency determined during the run-in period.
Subjects were treated with cilansetron 1 mg, 2 mg, 4 mg and 16 mg tablets given orally TID or matching placebo tablets given orally TID for 12 weeks.
The primary efficacy parameter was the weekly global question concerning adequate relief of IBS symptoms (abdominal pain/discomfort, abnormal bowel habits). A responder is a subject who responded “Yes” at least 50% of the time after randomization, with a minimum treatment duration of four weeks.

The nature of a further data set: clinical. As to conditions: both, human, serum, Fraction Unbound in Serum.
Data set [2] relates to healthy, elderly subjects. Description: Study K.241.5013: colonic transit time, elderly, 4 mg TID. The class given is in vivo, human. As to conditions: 4 mg TID oral 14 days, mean (SD). An excerpt:
The effect of cilansetron on gastric emptying time and colonic transit time has been studied in 1 clinical study in healthy young subjects and 2 studies in elderly subjects. For measurement of gastric emptying time, breath samples for the determination of the ^12C/^13C ratio were taken on the last day of each treatment period immediately after ingestion of a ^13C labeled meal. The patients' breath was collected in separate 15-minute intervals, for four hours in total. ^13CO2 measurements were performed with an isotope ratio mass spectrometer. The half-life (TK) and lag-time (Tlag), which describe the duration of gastric emptying, were used as the primary parameters to evaluate gastric emptying time. In all 3 studies, colonic transit time was measured by administration of radio-opaque markers for the last six days of each treatment period, followed by a single abdominal X-ray image at 24 hours after ingestion of the last set of markers. The numbers of markers within the colon were used to calculate segmental (right colon, left colon, and rectosigmoid) and total colonic transit time.
Studies K.241.5013 and K.241.5014 were randomized, double-blind, placebo-controlled, 2-way crossover studies in 8 healthy male and female elderly subjects, each (ITT population, aged 64-83 years in K.241.5013 and 66-84 years in K.241.5014). Elderly subjects were selected for these studies because they commonly suffer from constipation and it was of interest whether cilansetron would prolong gastrointestinal transit times in this population. Subjects received cilansetron 4 mg or placebo in Study K.241.5013 and cilansetron 8 mg or placebo in Study K.241.5014. Treatments were administered orally TID for 14 days during each period, with a 14-day washout between periods. The primary efficacy parameter was the total mean colonic transit time during each treatment and the secondary parameters were the segmental colonic transit times and the gastric emptying measurements. One-sided t-tests were used to compare efficacy parameters between the cilansetron and placebo treatments.

In data set [3] the target is purified human serum albumin (Homo sapiens, UniProt P02768). The class given is in vitro ADME. Here is the method:
(§1) Protein binding was also evaluated in an in vitro study in human, mouse, rat, and dog plasma using equilibrium dialysis (12-14K molecular weight cut-off membrane). This study measured the binding of (^14C)-cilansetron in plasma at nominal concentrations (30, 90, and 300 ng/mL) which are much higher than those encountered in vivo in humans. This study also measured the binding of (^14C)-cilansetron to purified human serum albumin at cilansetron concentrations ranging from 30-3000 ng/mL and to purified human alpha-1 acid glycoprotein (AAG) at concentrations ranging from 30-10000 ng/mL.

The format of data set [4] is in vitro ADME. How it is done: as §1
Data set [5] concerns purified human alpha-1 acid glycoprotein (AAG). The class given is in vitro ADME. How it is done:
as §1

Sequence of purified human serum albumin (P02768 25-609): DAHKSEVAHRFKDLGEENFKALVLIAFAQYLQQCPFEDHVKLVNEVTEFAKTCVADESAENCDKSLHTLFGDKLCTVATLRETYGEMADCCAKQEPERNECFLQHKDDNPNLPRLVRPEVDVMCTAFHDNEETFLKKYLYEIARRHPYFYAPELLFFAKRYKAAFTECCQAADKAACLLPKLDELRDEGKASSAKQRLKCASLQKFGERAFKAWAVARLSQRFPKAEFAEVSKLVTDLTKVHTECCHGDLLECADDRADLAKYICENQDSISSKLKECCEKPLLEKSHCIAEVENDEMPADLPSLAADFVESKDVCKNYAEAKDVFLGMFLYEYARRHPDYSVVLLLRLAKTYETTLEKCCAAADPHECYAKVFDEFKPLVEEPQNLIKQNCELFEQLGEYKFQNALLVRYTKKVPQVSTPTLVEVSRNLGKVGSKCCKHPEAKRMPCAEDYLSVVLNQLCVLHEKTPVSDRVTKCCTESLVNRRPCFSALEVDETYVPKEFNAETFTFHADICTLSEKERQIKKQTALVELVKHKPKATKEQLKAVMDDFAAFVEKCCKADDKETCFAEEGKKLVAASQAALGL
Description for clinical: The ex vivo protein binding of cilansetron and its 4-hydroxy metabolites has been measured in serum samples collected in a multiple-dose study in healthy and renally impaired male and female subjects, aged 33-74 years. […] Healthy subjects were matched to renally-impaired subjects with respect to age, weight, gender, and smoking status. All subjects received oral cilansetron 2 mg TID on Days 1 to 5, and a single dose on the morning of Day 6.

Turning to `Cc1nccn1C[C@H]1CCc2c(c3cccc4c3n2CCC4)C1=O` [Cilansetron, (R)-(−)-4,5,6,8,9,10-hexahydro-10-[(2-methyl-1H-imidazol-1-yl)methyl]-11H-pyrido-[3,2,1-jk]-carbazol-11-one], the “Responder rate higher than placebo” value in data set [1] (1 mg TID) amounted to 11%. Moreover, the “Responder rate better than placebo” value in data set [1] (2 mg TID) is on record as 22%. For the same compound, in data set [1] (4 mg TID), the “Responder rate higher than placebo” value was 8%. The “Responder rate higher than placebo” value in data set [1] (16 mg TID) worked out at 18%. In the data set “clinical”, this compound came in with a free fraction (fraction unbound) of 0.0396, a fraction unbound at 1 h of 0.0351 and a free fraction (fraction unbound) at […] of 0.034. Also, in data set [2], the “Transit Times, Colon Total” value is listed as 55.5 (41.3) hours; the “Transit Times, Colonic Segments Left” value is 21.9 (16.0) hours; the “Transit Times, Colonic Segments Rectosigmoid” value was 6.3 (8.3) hours; the “Transit Times, Colonic Segments Right” value is reported as 27.3 (29.2) hours. The “Binding to human albumin” value in data set [3] stood at 65.9%. The Plasma binding in data set [4] (dog) was found to be 86.5%. The compound further gave a Plasma binding in data set [4] (mouse) of 83.3%. The compound further had a Plasma binding in data set [4] (rat) of 88.2%. The “Binding to AAG” value in data set [5] is recorded as “around 90%”.

The fraction unbound is the share of the substance not bound to proteins or other matrix. Lower therefore signals extensive binding.
